Tested on: dissected embryonated cotyledon (DEC) explants of sweet sorghum hybrid varieties Liotian 1, Lioza 7050A and Liao Ji Za 1
Test: Regeneration of sorghum via organogenesis from dissected embryonated cotyledon (DEC) explants on stage 1-6 media
Assay type: cell-based, Sorghum bicolor (L.) Moench
Settings: for phenolic exudates from the base of the shoot buds: added to stage 2 medium
Method: Seeds of sweet sorghum (Sorghum bicolor (L.) Moench) hybrid varieties Liotian 1, Lioza 7050A and Liao Ji Za 1 were obtained from Chinese National Center for Sorghum Improvement, Shenyang City, 110161, Liaoning Province, P.R. China. The viable seeds were washed in chlorohexidine surgical wash (two drops in 100 ml of sterile water) for five minutes and soaked in sterile water for two days at 4° C. in refrigerator. Later these imbibed seeds were further surface sterilized in 10% clorox solution (commercial bleach) for 10 minutes followed by washes with sterile water for five times. To ensure complete sterility, these seeds were rinsed again with 70% alcohol for 90 seconds and subsequently washed with sterile water three times before used as explants.
The radical tissues were completely removed from the dissected embryonated cotyledon (DEC) explants. After six weeks of culture, the SCPC from stage 1 medium were further injured and transferred to stage 2 medium (Table 1) and stage 3 medium (Table 1) at five and ten-day interval for shoot bud induction. Subsequently, the shoot buds developed on stage 3 medium were split into 8-10 clumps with each clumps containing three to five shoots and transferred to stage 4 medium (Table 1) for further shoot induction followed by stage 5 medium (Table 1) for shoot elongation at two-week intervals respectively. The elongated shoot clumps with 2-3 shoots (4 cm height) from stage 5 medium were transferred to stage 6 medium (Table 1) for root induction. The well developed and rooted plantlets were transferred for hardening after two weeks of culture.
The pH of the medium was adjusted to 5.8 with 1N NaOH or 1N HCl prior to the addition of 0.8% phytoagar (stages 1-5 media) or 0.25% phytogel (stage 6 medium) and sterilized by autoclaving at 121° C. for 20 minutes. Approximately 20 ml of sterilized medium was dispensed into sterilized Petri dish (90×15 mm size, plastic polycarbonate, Canada). The chemicals used for media preparations were of analytical grade (Duchefa Biochemie, Haarlem, The Netherlands and Sigma Aldrich, Inc., St Louis, USA). All the cultures were maintained at 25° C. 2° C. under white fluorescent tube lights, 16/8 h (light/dark) photoperiod period, light intensity of 25 μE m^−2s^−1 and with 55-60% relative humidity. The cultures were subcultured at two-week intervals during stage 1, five-day intervals in stages 2 and 3, followed by one-week intervals in stages 4 and 5, with no subculturing in stage 6.

Structure (SMILES)	phenolic exudates from the base of the shoot buds	germination of embryos attached to the cotyledons (present in stage 1 medium)	also measured
O=[N+]([O-])[O-].[Ag+] [AgNO3]	prevented these phenolic exudates	–	–
O=C1O[C@H]([C@@H](O)CO)C(O)=C1O [Asc, ascorbic acid]	prevented these phenolic exudates	–	–
NC(=O)CC[C@H](N)C(=O)O [L-glutamine]	–	inhibited germination of embryos	–
CC1=CC(=O)CC(C)(C)[C@@]1(O)/C=C/C(C)=C\C(=O)O [ABA, abscisic acid]	–	inhibited germination of embryos	–
O=C(O)[C@@H]1CCCN1 [proline, L-proline]	–	inhibited germination of embryos	–
O=C(O)Cc1c[nH]c2ccccc12 [IAA, indole 3-acetic acid]	–	–	root induction (in stage 6 medium, 5.7 μM): induced roots within one week
O=C(O)COc1ccc(Cl)cc1Cl [2,4-D, 2,4-dichlorophenoxy acetic acid]	–	–	callus formation (present in stage 1 medium, 6.78 μM): induced callus formation
NCC(=O)O [L-glycine]	prevented these phenolic exudates	–	–

From patent publication US8431402B2, “Method of high frequency regeneration of Sorghum” (Temasek Life Sciences Laboratory Limited, priority 2008, dated 2013)
